≈ marks a conversion by molar mass, not a printed value. Where two headings read alike, the source gives them in different places. One block for each compound: values may come before it.
Tests used:
A2780 cells [1] = experiment: MTT cytotoxicity assay, A2780; assay type: cell-based, human
A2780cisR cells = experiment: MTT cytotoxicity assay, A2780cisR; assay type: cell-based, human; conditions: for RF (resistance factor): IC50(A2780cisR)/IC50(A2780); for IC50: MTT assay, 72 h exposure, cisplatin-resistant A2780cisR, read-out: IC50 A2780cis
[2] = T = 298 K, I = 0.10 M (KCl)
[3] = tested on: Pseudomonas aeruginosa PAO1 CECT 4122 (ATCC 15692); experiment: MIC microdilution, P. aeruginosa; assay type: cell-based; conditions: planktonic cells; for MIC50 / MIC: Pseudomonas aeruginosa; for MIC50 / P. aeruginosa MIC50: growth inhibited at 50%; for MIC / P. aeruginosa MIC100: lowest concentration completely inhibiting growth; for MIC: read-out: P. aeruginosa MIC100
Protocol: (§1) Wild-type P. aeruginosa PAO1 strain CECT 4122 (ATCC 15692) and S. aureus CECT 86 (ATCC 12600) were obtained from the Spanish Type Culture Collection (CECT). All strains were routinely cultivated in TSB medium (Sharlab, Spain) at 37 °C. MIC assays were determined by the microdilution method using TSB broth following the method described by the Clinical and Laboratory standards Institute.[94] In brief, compounds were diluted in a 96-well microtiter plate (tissue culture-treated polystyrene; […]

[4] = tested on: Staphylococcus aureus CECT 86 (ATCC 12600); experiment: MIC microdilution, S. aureus; assay type: cell-based; conditions: planktonic cells; for MIC50 / MIC: Staphylococcus aureus; for MIC50 / S. aureus MIC50: growth inhibited at 50%; for MIC / S. aureus MIC100: lowest concentration completely inhibiting growth; for MIC: read-out: S. aureus MIC100
Protocol: as §1

HEK293 cells = experiment: MTT cytotoxicity assay, HEK293; assay type: cell-based, human; conditions: for SF (selectivity factor): IC50(HEK293)/IC50(A2780); for IC50: MTT assay, 72 h exposure, noncancerous cells
[5] = n-octanol/water distribution coefficient, shake-flask; assay type: physicochemical; conditions: n-octanol/buffered aqueous solution, pH 7.40, UV-vis; for logD: pH 7.4, read-out: log D7.4
Protocol: The titrations were carried out under a nitrogen atmosphere.

A2780 cells [6] = experiment: Cellular accumulation of Cu by ICP-MS; assay type: cell-based, human; conditions: 24 h exposure, 1 μM
From the text: The ability of anticancer drugs to penetrate biological membranes, tissues, and barriers underlies their biological, pharmacokinetic, and metabolic properties. These properties can be predicted by calculating physicochemical characteristics of drug candidates using molecular descriptors.[30] […] The results are shown in Table S7 in the Supporting Information. On the basis of the calculated physicochemical parameters, we determined if novel compounds belonged to the drug-like chemical space, which is commonly defined by the well-known Lipinski rule, or to the known drug space (KDS), which includes all small compounds in medical use.[31] […] Following the calculations, we determined the lipophilicity of all compounds experimentally (log D7.4, Tables 1 and 2). It is known that cancer cells accumulate hydrophilic compounds to a smaller extent relative to hydrophobic compounds, thereby affecting their activity. […] As expected, proligands were more lipophilic than the corresponding Cu(II) species, which are positively charged at physiological pH (Figure 3b). […] The lipophilicity of 2–5 increased in the following order 4 < 2 < 3 < 5, and correlated well with their cytotoxicity in cancer cells, with the exception of 3. Subsequently, we determined the total cellular accumulation of Cu in A2780 cells by ICP–MS upon 24 h exposure to 1–6 in comparison with CuCl2 (Table 2). […] The accumulation increased in the order 6 < 1 < 3 < 4 < 2 < 5.
Cellular accumulation of 1–6 was determined in A2780 cells. Cells were seeded into Cellstar 6-well plates (Greiner Bio-one) at a density of 60 × 10^4 cells/well (2 mL per well). After the cells were allowed to resume exponential growth for 24 h, they were exposed to 1–6 at 1 μM for 24 h at 37 °C. The cells were washed twice with 1 mL of PBS and lysed with RIPA lysis buffer for 5–10 min at 4 °C. The cell lysates were scraped from the wells and transferred to separate 1.5 mL microtubes. The supernatant was then collected after centrifugation (13 000 rpm, 4 °C for 15 min) and total protein content of each sample was quantified via Bradford’s assay. Cell lysates were transferred to 2 mL glass vials and then digested with ultrapure 65% HNO3 at 100 °C for 24 h. The resulting solution was diluted to 1 mL (2–4% v/v HNO3) with ultrapure Milli-Q water. Cu content of each sample was quantified by ICP–MS. In was used as an internal standard. Cu and In were measured at m/z 64 and m/z 115, respectively. Metal standards for calibration curve (0, 0.5, 1, 2, 5, 10, 20, and 40 ppb) were freshly prepared before each measurement. All readings were made in triplicates in He mode. For temperature-dependent cellular accumulation experiments, A2780 cells were seeded into 35 n 10 mm tissue culture plates at a density of 60 0 10^4 cells/plate. After the cells were allowed to resume exponential growth for 24 h, they were exposed to 2 at 3 μM for 10, 30, 60, and 120 min at 37 and 4 °C. The subsequent analysis was performed as described above. For energy-dependent experiments, A2780 cells were seeded into 35 5 10 mm tissue culture plates at a density of 1 0 10^6 cells/plate. After the cells were allowed to resume exponential growth for 24 h, they were preincubated with oligomycin (5 μM) for 1 or 4 h or with cycloheximide (100 μM) for 4 h and further co-incubated with 3 μM of 2 at 37 °C. To induce total starvation, after the cells were allowed to resume exponential growth for 24 h, RPMI media was replaced with HBSS, and cells were preincubated in HBSS for 1 h and further incubated with 3 μM of 2 for 1 h at 37 °C. The subsequent analysis was performed as described above.

[7] = Cyclic voltammetry, redox potentials; assay type: physicochemical; conditions: first reduction step
Protocol: To assess the redox properties of 1-6, detailed electrochemical and spectroscopic studies in various solvents were performed using cyclic voltammetry as well as EPR-spectroelectrochemistry. Additionally, the UV-vis spectra of 1-5 were measured (Figure S8). […] The second reduction step occurred at -1.8 V versus Fc^+/Fc (-1.16 V vs NHE) and was less reversible, indicating a ligand-based reduction. […] In aqueous solutions, the reduction potentials shifted to the less negative values, and reduction was less reversible as shown for 2 in Figure S10. […] Cyclic voltammetric experiments were performed as described previously.[46] The cyclic voltammograms were measured in the cathodic region in different solvents (DMSO, methanol, DMSO/H2O). The analytical purity grade LiClO4 (Sigma-Aldrich) and distilled and deionized water were used for preparation of 1 mM aqueous solutions of the investigated complexes 1-6. EPR spectra were recorded with the EMX plus. In situ UV-vis-NIR spectroelectrochemical measurements were performed on a spectrometer (Avantes, Model AvaSpec-2048x14-USB2 in the spectroelectrochemical cell kit ([…]3)) with the Pt-microstructured honeycomb working electrode, purchased from Pine Research Instrumentation. The cell was positioned in the CUV-UV Cuvette Holder (Ocean Optics) connected to the diode-array UV-vis-NIR spectrometer by optical fibers. UV-vis-NIR spectra were processed using the AvaSoft 7.7 software package. Halogen and deuterium lamps were used as light sources (Avantes, Model AvaLight-DH-S-BAL). The in situ EPR spectroelectrochemical experiments were carried out under an argon atmosphere in the EPR flat cell equipped with a large platinum mesh working electrode. The freshly prepared solutions were carefully purged with argon and the electrolytic cell was polarized in the galvanostatic mode directly in the cylindrical EPR cavity TM-110 (ER 4103 TM), and the EPR spectra were measured in situ.

[8] = Homo sapiens, A2780, 72 h exposure

Compound: N.N.[Cl][Pt][Cl] [cisplatin, reference compound]
IC50 (A2780 cells [1]; 72 h exposure): 0.44 ± 0.13 µM
RF (resistance factor) (A2780cisR cells): 10.5
IC50 (A2780cisR cells): 4.6 ± 0.3 µM

logβ ([2]; EPR): 10.22(1)
logβ ([2]; UV-vis via CT bands): 10.42(1)
logβ ([2]; UV-vis via d-d bands): 10.45(1)
logβ ([2]; pH-metry): 10.45(4)
Compound: NC(=NN=Cc1ccc(CN2CCOCC2)cn1)[S][Cu][OH] [[CuLH41]]

MIC50 [3]: 0.5 µg/mL (≈ 1.51 µM)
MIC [3]: 2 µg/mL (≈ 6.04 µM)
MIC50 [4]: 0.5 µg/mL (≈ 1.51 µM)
MIC [4]: 1 µg/mL (≈ 3.02 µM)
Compound: O=C(O)c1cn(C2CC2)c2cc(N3CCNCC3)c(F)cc2c1=O [CPX, ciprofloxacin, reference compound]

Compound: CSC(=NN=Cc1ccc(CN2CCOCC2)cn1)[NH][Cu][Cl] [complex 6, [Cu(L^6)Cl]]
P. aeruginosa MIC50 [3]: 200 µg/mL
P. aeruginosa MIC100 [3]: NA (NA denotes no antibacterial activity detected (>500 μg/mL))
S. aureus MIC100 [4]: NA (NA denotes no antibacterial activity detected (>500 μg/mL))
SF (selectivity factor) (HEK293 cells): 1.7
IC50 (HEK293 cells): 72 µM
IC50 (A2780 cells [1]; 72 h exposure): 43 ± 3 µM
log D7.4 [5]: –0.23 ± 0.01
cellular accumulation A2780 (A2780 cells [6]): 0.47 ± 0.08 nmol Cu/mg protein
RF (resistance factor) (A2780cisR cells): 1.4
IC50 (A2780cisR cells): 62 ± 6 µM

Compound: [Cl][Cu][S]C(=NN=Cc1ccc(CN2CCOCC2)cn1)N1CCOCC1 [complex 4, [Cu(L^4)Cl]]
E1/2 Red1 (DMSO) vs Fc+/Fc ([7]; DMSO, vs Fc+/Fc): –0.80 V
E1/2 Red1 (DMSO) vs NHE ([7]; DMSO, vs NHE (in brackets)): –0.16 V
E1/2 Red1 (MeOH) vs Fc+/Fc ([7]; MeOH, vs Fc+/Fc): –0.49 V
E1/2 Red1 (MeOH) vs NHE ([7]; MeOH, vs NHE (in brackets)): +0.15 V
P. aeruginosa MIC50 [3]: 100 µg/mL
P. aeruginosa MIC100 [3]: 400 µg/mL
S. aureus MIC50 [4]: 5 µg/mL
S. aureus MIC100 [4]: 10 µg/mL
SF (selectivity factor) (HEK293 cells): 3.0
IC50 (HEK293 cells): 0.24 ± 0.02 µM
IC50 (A2780 cells [1]; 72 h exposure): 0.08 ± 0.01 µM
log D7.4 [5]: +0.12 ± 0.01
cellular accumulation A2780 (A2780 cells [6]): 3.2 ± 0.7 nmol Cu/mg protein
RF (resistance factor) (A2780cisR cells): 3.3
IC50 (A2780cisR cells): 0.26 ± 0.04 µM

MIC50 [3]: > 500 µg/mL
MIC [3]: > 500 µg/mL
MIC50 [4]: > 500 µg/mL
MIC [4]: > 500 µg/mL
S. aureus MIC50 [4]: >500 µg/mL
logD [5]: 0.84
Compound: CSC(=N)NN=Cc1ccc(CN2CCOCC2)cn1 [HL^6, 5-(Morpholinomethyl)pyridine-2-carboxaldehyde S-Methylisothiosemicarbazone]
IC50 (HEK293 cells; Homo sapiens, HEK293): 89 ± 2 µM
IC50 (A2780 cells [1]; [8]): 157 ± 21 µM
IC50 (A2780cisR cells; Homo sapiens): 426 ± 44 µM

MIC50 [3]: > 500 µg/mL
MIC [3]: > 500 µg/mL
MIC50 [4]: 10 µg/mL (≈ 28.1 µM)
MIC [4]: 300 µg/mL (≈ 844 µM)
logD [5]: ≥ 2
Compound: S=C(NN=Cc1ccc(CN2CCOCC2)cn1)Nc1ccccc1 [HL^5, 5-(Morpholinomethyl)pyridine-2-carboxaldehyde 4-Phenylthiosemicarbazone]
IC50 (HEK293 cells; Homo sapiens, HEK293): 0.67 ± 0.06 µM
IC50 (A2780 cells [1]; [8]): 0.31 ± 0.08 µM
IC50 (A2780cisR cells; Homo sapiens): 1.1 ± 0.2 µM

MIC50 [3]: > 500 µg/mL
MIC [3]: > 500 µg/mL
MIC50 [4]: 100 µg/mL (≈ 358 µM)
MIC [4]: > 400 µg/mL
logD [5]: 0.46
Compound: NC(=S)NN=Cc1ccc(CN2CCOCC2)cn1 [HL^1, 5-(Morpholinomethyl)pyridine-2-carboxaldehyde Thiosemicarbazone]
IC50 (HEK293 cells; Homo sapiens, HEK293): 9.1 ± 1.7 µM
IC50 (A2780 cells [1]; [8]): 7.6 ± 1.9 µM
IC50 (A2780cisR cells; Homo sapiens): 13 ± 1 µM

logβ ([2]; determined via EDTA displacement study): 19.04(2)
Compound: NC(=NN=Cc1ccc(CN2CCOCC2)cn1)[S][Cu+] [[CuL]+]

MIC50 [3]: 70 µg/mL (≈ 228 µM)
MIC [3]: 100 µg/mL (≈ 325 µM)
MIC50 [4]: 10 µg/mL (≈ 32.5 µM)
MIC [4]: 400 µg/mL (≈ 1300 µM)
logD [5]: 0.51
Compound: CN(C)C(=S)N/N=C/c1ccc(CN2CCOCC2)cn1 [HL^2, 5-(Morpholinomethyl)pyridine-2-carboxaldehyde 4,4-Dimethyl-3-thiosemicarbazone]
IC50 (HEK293 cells; Homo sapiens, HEK293): 0.03 ± 0.005 µM
IC50 (A2780 cells [1]; [8]): 0.01 ± 0.001 µM
IC50 (A2780cisR cells; Homo sapiens): 0.035 ± 0.006 µM

logβ ([2]; EPR): 24.00(1)
logβ ([2]; UV-vis via CT bands): 24.00(1)
logβ ([2]; UV-vis via d-d bands): 23.96(1)
logβ ([2]; pH-metry): 24.09(3)
Compound: NC(=NN=Cc1ccc(C[NH+]2CCOCC2)cn1)[S][Cu+] [[CuLH]2+]
